Peptide text beside a SMILES is read from it.
Legend:
[1] = tested on: rat model of myocardial infarction; test: Rat model of myocardial infarction-induced heart failure; assay type: in vivo; conditions: vs vehicle
Experimental: Adult male Sprague-Dawley rats weighing 250-320 g were obtained from Animal Resources Centre, Perth, Wash., Australia. The rats were group housed in a constant temperature of 22±1° C. and a relative humidity of 50-60% under a controlled light-dark cycle of 12 hours. Rats were given access to standard laboratory rat chow and drinking water ad libitum.
Heart failure was induced as previously described (Ruchaya et al., 2014, Exp Physiol 99, 111-122). Breifly, to induce heart failure, rats were anaesthetised with an intramuscular injection of ketamine (60 mg/kg) and medetomide hydrochloride ([…]). A left sided thoracotomy through an opening between the fourth and fifth rib was performed, the heart was exteriorised and the left anterior descending coronary artery was ligated. Anaesthesia was reversed with antipamezole hydrocholide (1 mg/kg). Penicillin (1000 U) and buprenorphine (0.05 mg/kg) was administered to aid post-operative recovery. Animals were left to recover from the surgery under a heating source. Rats were individually housed after the surgery.
Eight weeks after myocardial infarction surgery, rats were randomly assigned to 3 groups (vehicle, H2 and B7-33), re-anaesthetised (2-3% isoflurane) and an osmotic mini-pump (model 2ML4, Alzet, Cupertino, Calif.) implanted intraperitoneally. Vehicle (saline), native H2 relaxin (0.5 mg/kg/day) or B7-33 C11.23S (0.5 mg/kg/day) was continuously administered for 28 days. At the conclusion of treatment, rats were anaesthetized (sodium pentobarbitone, 60 mg/kg i.p.) and the left ventricular end-diastolic pressure determined prior to decapitation and removal of the heart for histological analysis.

[2] = tested on: mouse model of isoproterenol (ISO) induced cardiac fibrosis; test: Mouse model of isoproterenol-induced cardiomyopathy (cardiac fibrosis); assay type: in vivo; conditions: 129SV mice, 14 days, s.c. minipump; relative to isoproterenol treatment
Description: Seven to eight-week old male 129SV mice (which are sensitive to tissue injury and fibrosis) and age-matched female Balb/c mice (which are sensitive to changes in airway hyperresponsiveness) were used for the induction of isoproterenol-induced cardiomyopathy and ovalbumin-induced chronic allergic airways disease, respectively. 16 five week-old male C57BL/6 mice were used in the induction of prostate cancer growth. All animals were obtained from Monash Animal Services (Monash University, Clayton, Victoria, Australia) and housed under standard conditions (maintained on an 12 h light-12 h dark lighting cycle with free access to food and water) in the Department of Pharmacology Animal Room at Monash University.
The mid zone of the male mouse heart and largest lung lobe from female Balb/c mice were fixed in 10% neutral buffered formalin for 24-48 h before being processed and embedded routinely in paraffin wax. Representative sections of tissue, 3-5 um each, were taken and stained with either picrosirius red (Samuel et al. 2011 Lab Invest 91, 675-690) for the detection of interstitial collagen or Masson's trichrome (Royce et al, 2009, Endocrinology 150, 2692-2699) for the detection of subepithelial basement membrane collagen deposition).
Changes in picrosirius-red stained interstitial collagen or epithelial thickness and subepithelial collagen (fibrosis) around the airway lumen from Masson's trichrome-stained sections; which were all captured (at ×20 magnification) using a SPOT digital camera (Q Imaging, Burnaby, BC, Canada) and analysed with Image J 1.3 software (National Institutes of Health, Bethesda, Md.). Four to five fields per mid zone of the heart or 4-5 airways (of 150-350 μm in diameter) per mouse were assessed. Epithelial thickness and subepithelial collagen regions were traced with a digital pen and the thickness of each region calculated by the imaging software. Results were expressed as mean thickness ([…]) of the 4-5 airways sampled.
The apical region of the heart or second largest lung lobe from each mouse was treated as described previously (Samuel C S, et at., 2003, FASEB J 17, 121-123; Royce et at. 2009, Endocrinology 150, 2692-2699) for the determination of hydroxyproline content. Hydroxyproline values were estimated based on a standard curve constructed with serial dilutions of a 0.1 mg/mL stock of trans-4-hydroxyproline-L-proline (Sigma-Aldrich). Hydroxyproline values were then converted to collagen content as detailed previously (Samuel CS, et al. 2004. Endocrinology 145, 4125-4133) and, in turn, divided by the dry weight of each corresponding left ventricular or lung tissue assessed to yield collagen concentration (a measure of fibrosis). […]

RXFP1 = molecular target: T1, RXFP1 (Homo sapiens, UniProt Q9HBX9); test: cAMP reporter gene assay (pCRE β-galactosidase) in HEK-293T cells transfected with RXFP1; assay type: cell-based; conditions: FIG. 3A, ERK data not shown
T1 construct: expressed in transfected cells; host or cells: HEK-293T
T1 sequence (Q9HBX9 1-757): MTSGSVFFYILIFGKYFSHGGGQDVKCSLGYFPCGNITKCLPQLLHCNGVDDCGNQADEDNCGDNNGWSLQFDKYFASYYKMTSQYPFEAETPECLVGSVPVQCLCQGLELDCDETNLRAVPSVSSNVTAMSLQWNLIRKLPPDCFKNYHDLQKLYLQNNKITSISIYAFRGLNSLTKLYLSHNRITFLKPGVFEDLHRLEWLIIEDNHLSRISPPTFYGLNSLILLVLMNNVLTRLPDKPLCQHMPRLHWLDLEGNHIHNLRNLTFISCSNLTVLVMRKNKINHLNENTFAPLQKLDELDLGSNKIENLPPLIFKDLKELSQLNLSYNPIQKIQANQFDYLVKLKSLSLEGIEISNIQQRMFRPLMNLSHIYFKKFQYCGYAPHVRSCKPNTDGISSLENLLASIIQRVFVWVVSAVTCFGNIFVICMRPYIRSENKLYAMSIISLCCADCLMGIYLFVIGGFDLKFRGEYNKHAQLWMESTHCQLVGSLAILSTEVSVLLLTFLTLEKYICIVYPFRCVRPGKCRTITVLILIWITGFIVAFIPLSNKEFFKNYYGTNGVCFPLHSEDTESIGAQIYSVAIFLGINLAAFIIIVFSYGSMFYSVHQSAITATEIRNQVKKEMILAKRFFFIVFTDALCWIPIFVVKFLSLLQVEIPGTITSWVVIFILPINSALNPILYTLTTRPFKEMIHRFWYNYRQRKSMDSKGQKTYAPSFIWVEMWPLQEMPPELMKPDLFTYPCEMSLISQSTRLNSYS

CC[C@H](C)[C@H](NC(=O)[C@H](C)NC(=O)[C@@H](NC(=O)[C@H](CCC(N)=O)NC(=O)[C@H](C)NC(=O)[C@H](CCCNC(=N)N)NC(=O)[C@@H](NC(=O)[C@H](CC(C)C)NC(=O)[C@H](CCC(=O)O)NC(=O)[C@H](CCCNC(=N)N)NC(=O)CNC(=O)[C@H](CO)NC(=O)[C@H](CC(C)C)NC(=O)[C@H](CCCCN)NC(=O)[C@@H](NC(=O)[C@@H](N)C(C)C)[C@@H](C)CC)C(C)C)[C@@H](C)CC)C(=O)N[C@@H](CO)C(=O)NCC(=O)N[C@@H](CCSC)C(=O)N[C@@H](CO)C(=O)N[C@H](C(=O)N[C@@H](Cc1c[nH]c2ccccc12)C(=O)N[C@@H](CO)C(=O)N[C@@H](CCCCN)C(=O)N[C@@H](CCCNC(=N)N)C(=O)N[C@@H](CO)C(=O)N[C@@H](CC(C)C)C(N)=O)[C@@H](C)O [B7-33 C11.23S] (H-VIKLSGRELVRAQIAISGMSTWSKRSL-NH2)
Percentage of collagen in the interstitial area of the left ventricle ([1]; 0.5 mg/kg/day i.p. mini-pump for 28 days from 8 weeks after MI): significant reduction
Left ventricular end-diastolic pressure (LVEDP) ([1]; 12 weeks after myocardial infarction): reduced
Percentage of interstitial collagen in the left ventricle (picrosirius red) [2]: significantly reduced
Total left ventricular collagen concentration (hydroxyproline analysis) [2]: significantly reduced
Activation of cAMP and ERK signalling pathways in HEK-RXFP1 cells (in words) (RXFP1): full agonist, but with poor potency

From patent US10081662B2, “Modified relaxin B chain peptides” (The Florey Institute of Neuroscience and Mental Health, priority 2014, dated 2018)
